Data published in paper PMC9865645, “The Impact of N^ε-Acryloyllysine Piperazides on the Conformational Dynamics of Transglutaminase 2” (International Journal of Molecular Sciences, 2023).
Like-named read-outs stand apart in the source and are kept apart here.

Target: T1, self-produced hTGase 2 (Homo sapiens, UniProt P21980)
T1 construct: thrombin cleavage site (N); made in house; host or cells: E. coli BL21(DE3)
T1 sequence (P21980 1-687): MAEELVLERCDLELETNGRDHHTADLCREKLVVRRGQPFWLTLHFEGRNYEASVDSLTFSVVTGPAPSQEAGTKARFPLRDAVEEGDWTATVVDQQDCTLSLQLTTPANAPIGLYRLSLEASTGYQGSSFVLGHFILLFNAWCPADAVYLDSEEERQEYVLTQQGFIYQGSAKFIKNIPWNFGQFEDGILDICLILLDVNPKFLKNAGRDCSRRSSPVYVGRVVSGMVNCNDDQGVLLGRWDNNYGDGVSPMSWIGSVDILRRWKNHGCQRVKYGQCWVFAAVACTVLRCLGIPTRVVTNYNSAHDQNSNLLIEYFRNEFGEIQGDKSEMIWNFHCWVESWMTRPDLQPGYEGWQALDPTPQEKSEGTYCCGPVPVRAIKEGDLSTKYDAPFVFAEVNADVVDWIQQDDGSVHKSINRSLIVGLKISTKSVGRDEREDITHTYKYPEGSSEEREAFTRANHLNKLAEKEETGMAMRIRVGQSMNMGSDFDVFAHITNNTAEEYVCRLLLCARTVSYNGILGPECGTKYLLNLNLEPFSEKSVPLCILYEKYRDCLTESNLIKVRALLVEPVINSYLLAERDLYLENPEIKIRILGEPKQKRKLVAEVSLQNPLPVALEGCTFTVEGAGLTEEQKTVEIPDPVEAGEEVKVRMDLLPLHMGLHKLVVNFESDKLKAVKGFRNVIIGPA
Test: native GTP-PAGE with increasing concentrations of inhibitor, band quantification
Type: biochemical
Settings: 8.23 µM hTGase 2; for IC50: 50 µM GTP in gel and buffer
Protocol: Figure 8 Effect of increasing concentrations of inhibitor 2 on the activity and the conformation of hTGase 2. Native GTP-PAGE was performed on 7% separating gels. Both the gel and the running buffer contained 50 µM GTP without (A) and with an additional 500 µM MgCl2 (B). Samples of 8.23 µM self-produced hTGase 2 were first incubated for 30 min at 20 °C in 100 mM MOPS pH 8.0, 100 mM NaCl, 2.12% (v/v) DMSO, 5.33% (v/v) glycerol with CaCl2, GTP, MgCl2, and different concentrations of inhibitor 2, as indicated. GTP and/or MgCl2 were added as indicated, and all samples were incubated for 60 min at 20 °C. After adding native loading buffer, 6 µL of each sample containing 3 µg of hTGase 2 was loaded onto the gel. After electrophoretic separation, gels were stained with Coomassie Brilliant Blue G250, scanned, and the protein bands were quantified (Figure S7 in Supplementary Materials). Four species of hTGase 2, i.e., oligomers and slow-, intermediate-, and fast-migrating species, were identified, with slow- and intermediate-migrating species combined for the quantitative analysis. (C) Percentage of the signals of the three species per lane and (D) percentage of the oligomers’ signal plotted versus the concentration of inhibitor 2. (E) Signals of the slow-/intermediate-migrating and fast-migrating species were added and set to one. (F) Portion of the fast-migrating species in (E) was plotted against the concentration of inhibitor 2. The IC50 values in (D,F) were calculated by non-linear regression according to Equation (S29) in Supplementary Materials.
Sodium dodecyl sulfate-PAGE (SDS-PAGE) and native PAGE were performed on 4% stacking and 7% separating gels using Laemmli buffers (60 min with 120 V, 300 mA and 30 W at room temperature) and the same buffers without SDS (80 min with 120 V, 50 mA and 30 W at 4 °C), respectively. Buffers and gels were as follows: (i) for SDS-PAGE: stacking gel: 0.125 M TRIS pH 6.8, 4% (v/v) acrylamide-bisacrylamide, 0.1% (m/v) SDS; separating gel: 0.375 M TRIS pH 8.8, 7% (v/v) acrylamide-bisacrylamide, 0.1% (m/v) SDS; running buffer: 0.025 M TRIS pH 8.3, 0.2 M glycine, 0.1% (m/v) SDS; (ii) for native PAGE: the same buffers and gels were used without the addition of SDS. Native PAGE experiments, where 50 µM of GTP was added to the stacking and separating gels and the running buffer, are specified as “native GTP-PAGE” (with italic letters). In contrast, experiments without GTP are denoted as “native PAGE” (with italics letters). The term “native (GTP-)PAGE” (with italics letters) is used when we refer to both methods. Further conditions of the SDS-PAGE and native (GTP-)PAGE are detailed in the legends of Figure 7 and Figure 8 and Figures S4–S6 (Supplementary Materials). For the loading of samples onto the stacking gel, three parts of the sample solution were mixed with one part of the respective loading buffer. In the case of SDS-PAGE, SDS loading buffer (0.24 M TRIS, 40% (v/v) glycerol, 8% (m/v) SDS, 2% (v/v) 2-mercaptoethanol, and 0.08% (m/v) bromphenol blue) were used, followed by the denaturation of the mixture for 5 min at 60 °C. […] Afterward, the gels were scanned using a LI-COR Odyssey Fc Imager (700 channel) and analyzed using Image Studio software version 5.2.5. Detected bands were quantified based on the general procedure published by Wagstaff et al. and as detailed in legends to Figures S5 and S6. […]

- IC50 (Gel A (w/o Mg^2+), read-out: IC50, percentage of the oligomers' signal (Figure 8D)): 5.58 µM
- IC50 (Gel A (w/o Mg^2+), read-out: IC50, portion of the fast-migrating (closed) species of monomeric hTGase 2 (Figure 8F)): 5.28 µM
- IC50 (Gel B (with Mg^2+, 500 µM MgCl2), read-out: IC50, percentage of the oligomers' signal (Figure 8D)): 5.71 µM
- IC50 (Gel B (with Mg^2+, 500 µM MgCl2), read-out: IC50, portion of the fast-migrating (closed) species of monomeric hTGase 2 (Figure 8F)): 5.68 µM
- ratio of the IC50 and the molar enzyme concentration (native GTP-PAGE, calculated from values in Figure 8D,F): 0.64–0.69
Structure (SMILES): C=CC(=O)NCCCC[C@H](NC(=O)Cc1ccccc1I)C(=O)N1CCN(c2ccc([N+](=O)[O-])nc2)CC1 [Compound 2, N^α-(2-Iodophenylacetyl)-N^ε-acryloyl-L-lysin-4-(2-nitropyridin-5-yl)piperazide]
